Laboratory results reported in EP4763839A1 (Pamplona Therapeutics (Shenzhen) Co., Ltd., priority 2023, dated 2025).

What was measured:
IRAK4 [1] = target: T1, IRAK4 (Homo sapiens, UniProt Q9NWZ3); assay: Degradation of IRAK4 in THP1 cells, Western blot; assay type: cell-based; parameters: Degradation of IRAK4 in THP1 by compound; host or cells: THP-1; settings: THP-1 cells, 24 hours of incubation; for DC50: IRAK4 protein by Western blot, read-out: DC50; for Dmax: maximum degradation rate, read-out: Dmax
T1 sequence (Q9NWZ3 1-460): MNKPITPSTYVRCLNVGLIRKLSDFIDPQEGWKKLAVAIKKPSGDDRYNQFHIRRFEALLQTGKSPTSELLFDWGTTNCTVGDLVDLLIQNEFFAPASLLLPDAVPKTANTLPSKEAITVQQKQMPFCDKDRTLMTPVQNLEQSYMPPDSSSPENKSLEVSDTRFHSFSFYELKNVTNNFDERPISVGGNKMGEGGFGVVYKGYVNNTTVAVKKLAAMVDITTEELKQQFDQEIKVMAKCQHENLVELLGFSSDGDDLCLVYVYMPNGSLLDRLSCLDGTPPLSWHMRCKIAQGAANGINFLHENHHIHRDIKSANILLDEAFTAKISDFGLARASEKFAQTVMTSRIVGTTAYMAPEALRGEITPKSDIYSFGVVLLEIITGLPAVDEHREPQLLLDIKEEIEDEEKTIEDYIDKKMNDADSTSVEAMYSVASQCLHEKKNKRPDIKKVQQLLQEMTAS
Procedure, shortened: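 THP1 cells treated 24 h, lysed; lysates normalised by BCA, 40 μg protein per lane on 10% SDS-PAGE, anti-IRAK4 Western blot with chemiluminescence detection.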

IL-6 = assay: Inhibition of R848-induced IL-6 release in human PBMCs, IL-6 ELISA; assay type: cell-based; settings: compound 24 hours, then R848 10 µg/mL 5 hours
Experimental: Example 3: Detection of inhibition of R848-induced IL-6 release
Cryopreserved human PBMCs (Milestone® Biotechnologies, PB010C-W) were thawed and resuspended in RPMI-1640 medium (Gibco, 22400-105) supplemented with 10% fetal bovine serum (Gibco, 10099-141), 100 U/mL penicillin, and 100 µg/mL streptomycin (Gibco, 15140122). Subsequently, 190 µL of the PBMC suspension was added to each well of 96-well clear cell culture plates (Corning, 3599) to achieve a density of 1×10^5 cells/well. The cell plates were incubated at 37°C in a 5% CO2 incubator for 30 minutes. Then, 5 µL of diluted compound solution was added to the corresponding cell-seeded wells to achieve final concentrations ranging from 0.046 to 3,000 nM. The final concentration of DMSO was 0.1%. After the compound-treated cell plate was incubated at 37°C in a 5% CO2 incubator for 24 hours, 5 µL of R848 (MCE, HY-13740) was added to achieve a final concentration of 10 µg/mL. The cell plates were incubated again at 37°C in a 5% CO2 incubator for 5 hours, then centrifuged at 1,000 rpm for 1 minute. 100 µL of the cell supernatant from each well was transferred to a new 96-well clear cell culture plate for IL-6 concentration testing.
Interleukin-6 (IL-6) ELISA assay
The IL-6 concentration in the supernatant of R848-induced human PBMCs was determined using a Human IL-6 (interleukin-6) ELISA KIT (4Bio, CHE0009-048). IL-6 standard solutions at different concentrations, ranging from 3.9 to 250 pg/mL, were prepared according to the manufacturer's instructions. 100 µL of each concentration of the IL-6 standard solution and the pre-diluted test cell supernatant samples were added separately to anti-IL-6 antibody-coated and blocked clear 96-well plates, followed by incubation at 37°C for 1.5 hours. According to the product instructions, the plates were washed, 100 µL of biotinylated antibody was added, and the plates were incubated at 37°C for 1 hour. The plates were washed, 100 µL of enzyme conjugate working solution was added. The plates were incubated at 37°C for 30 minutes, and then washed. 100 µL of chromogenic substrate was added, and the plates were incubated at 37°C for 10-20 minutes. The reaction was terminated by adding 100 µL of stop solution. After the reaction, the OD value at 450 nm was measured in absorbance mode using an Envision microplate reader (PerkinElmer). A standard curve was plotted using the corrected OD values of the various concentrations of IL-6 standard solutions. The IL-6 concentration in each cell supernatant was then determined on the basis of the corresponding concentration for the corrected OD value of the test sample on the standard curve. […] Subsequently, the IC50 value of the compound was calculated by performing non-linear curve fitting of concentration versus inhibition rate using GraphPad Prism 9.

IRAK4 [2] = target: T1, IRAK4; assay: Assay for inhibitory effect of compound on IRAK4 kinase activity (KinEASE-STK S1 HTRF kit); assay type: biochemical; settings: kinase 8 nM, ATP 80 µM, 37°C 90 minutes; read-out: IRAK4 HTRF IC50
Procedure, shortened: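 HTRF assay: 8 nM IRAK4 preincubated 15 minutes at rt with compound (final 5,000–0.0254 nM, 3-fold dilutions), then 400 nM biotinylated STK1 substrate and 80 µM ATP, 90 minutes at 37°C. Eu-cryptate anti-phospho-Ser/Thr antibody and streptavidin-XL665 detection, 665/620 ratio; IC50 from nonlinear fit of inhibition.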

| IC50 (IRAK4 [2]) [nM] | Molecule | DC50 (IRAK4 [1]) [nM] | Dmax (IRAK4 [1]) [%] | IC50 (IL-6; PBMC) [nM] | IC50 (IL-6) [nM] |
| --- | --- | --- | --- | --- | --- |
| – | NC(=O)c1nn(-c2ccc(N3CCN(CC4CCN(c5ccc6c(c5)C(=O)N(C5CCC(=O)NC5=O)C6=O)CC4)CC3)cc2)cc1NC(=O)c1cccc(C(F)(F)F)n1 (stereo not shown) [Compound A122] | < 100 | > 60 | < 10 | – |
| – | Cn1c(=O)n(C2CCC(=O)NC2=O)c2cccc(N3CCC4(CCN(C(=O)c5ccc(-n6cc(NC(=O)c7cccc(C(F)(F)F)n7)c(C(N)=O)n6)cc5)C4)CC3)c21 (stereo not shown) [Compound A135] | < 100 | > 60 | < 10 | – |
| – | Cn1c(=O)n(C2CCC(=O)NC2=O)c2cccc(N3CCC4(CC3)CC(NCc3ccc(-n5cc(NC(=O)c6cccc(C(F)(F)F)n6)c(C(N)=O)n5)cc3)C4)c21 (stereo not shown) [Compound A137] | < 100 | > 60 | < 10 | – |
| – | Cn1c(=O)n(C2CCC(=O)NC2=O)c2cccc(N3CCC4(CCN(Cc5ccc(-n6cc(NC(=O)c7cccc(C(F)(F)F)n7)c(C(N)=O)n6)cc5)C4)CC3)c21 (stereo not shown) [Compound A140] | < 100 | > 60 | < 10 | – |
| – | COc1ccc(C(=O)N2CCN(CCN3CCN(c4ccc(-n5cc(NC(=O)c6cccc(C(F)(F)F)n6)c(C(N)=O)n5)cc4)CC3)CC2)cc1N1CCC(=O)NC1=O [Compound A143] | < 100 | > 60 | < 10 | – |
| – | COc1ccc(C(=O)N2CCC(CCN3CCN(c4ccc(-n5cc(NC(=O)c6cccc(C(F)(F)F)n6)c(C(N)=O)n5)cc4)CC3)CC2)cc1N1CCC(=O)NC1=O [Compound A144] | < 100 | > 60 | < 10 | – |
| – | COc1ccc(C(=O)N2CCC(CCN3CCN(c4ccc(-n5cc(NC(=O)c6cccc(C(F)(F)F)n6)c(C(F)F)n5)cc4)CC3)CC2)cc1N1CCC(=O)NC1=O [Compound A148] | 100 to 1000 | > 60 | 10 to 30 | – |
| – | COc1ccc(C(=O)N2CCC(CCN3CCN(c4ccc(-n5cc(NC(=O)c6cccc(C(F)(F)F)n6)c(C(N)=O)n5)cc4)CC3)C(F)(F)C2)cc1N1CCC(=O)NC1=O (stereo not shown) [Compound A168] | – | – | < 10 | – |
| – | NC(=O)c1nn(-c2ccc(N3CCN(CC4CCN(c5ccc(C(=O)NC6CCC(=O)NC6=O)cc5)CC4)CC3)cc2)cc1NC(=O)c1cccc(C(F)(F)F)n1 (stereo not shown) [Compound A171] | – | – | 10 to 30 | – |
| – | Cn1c(=O)n(C2CCC(=O)NC2=O)c2cccc(N3CCN(CCN4CCN(c5ccc(N6C=C(NC(=O)c7cccc(C(F)(F)F)n7)C(=C=O)N6)cc5)CC4)CC3)c21 (stereo not shown) [Compound A180, N-(3-carbonyl-1-(4-(4-(2-(4-(1-(2,6-dioxopiperidin-3-yl)-3-methyl-2-oxo-2,3-dihydro-1H-benzo[d]imidazol-4-yl)piperazin-1-yl)ethyl)piperazin-1-yl)phenyl)-1H-pyrazol-4-yl)-6-(trifluoromethyl)picolinamide] | < 100 | > 60 | < 10 | – |
| – | Cn1c(=O)n(C2CCC(=O)NC2=O)c2cccc(N3CCC(CCN4CCN(c5ccc(-n6cc(NC(=O)c7cccc(C(F)(F)F)n7)c(C(N)=O)n6)cc5)CC4)CC3)c21 (stereo not shown) [Compound A182, N-(3-carbamoyl-1-(4-(4-(2-(1-(1-(2,6-dioxopiperidin-3-yl)-3-methyl-2-oxo-2,3-dihydro-1H-benzo[d]imidazol-4-yl)piperidin-4-yl)ethyl)piperazin-1-yl)phenyl)-1H-pyrazol-4-yl)-6-(trifluoromethyl)picolinamide] | < 100 | > 60 | < 10 | – |
| – | COc1ccc(C(=O)N2CCC(CCN3CCN(c4ccc(N5C=C(NC(=O)c6cccc(C(F)(F)F)n6)C(=C=O)N5)cc4)CC3)C2)cc1N1CCC(=O)NC1=O (stereo not shown) [Compound A183, N-(3-carbonyl-1-(4-(4-(2-(1-(3-(2,4-dioxotetrahydropyrimidin-1(2H)-yl)-4-methoxybenzoyl)pyrrolidin-3-yl)ethyl)piperazin-1-yl)phenyl)-1H-pyrazol-4-yl)-6-(trifluoromethyl)picolinamide] | < 100 | > 60 | < 10 | – |
| – | NC(=O)c1nn(-c2ccc(N3CCN(CC4CCN(c5ccc(N6CCC(=O)NC6=O)cc5)CC4)CC3)cc2)cc1NC(=O)c1cccc(C(F)(F)F)n1 [Compound A192, N-(3-carbamoyl-1-(4-((1-(4-(2,4-dioxotetrahydropyrimidin-1(2H)-yl)phenyl)piperidin-4-yl)methyl)piperazin-1-ylphenyl)-1H-pyrazol-4-yl)-6-(trifluoromethyl)picolinamide] | – | – | 10 to 30 | – |
| – | NC(=O)c1nn(-c2ccc(N3CCN(CCC4CCN(c5ccc(NC6CCC(=O)NC6=O)cc5F)CC4)CC3)cc2)cc1NC(=O)c1cccc(C(F)(F)F)n1 (stereo not shown) [Compound A194, N-(3-Carbonyl-1-(4-(4-(2-(4-(((2,6-dioxopiperidin-3-yl)amino)-2-fluorophenyl)piperidin-4-yl)ethyl)piperazin-1-yl)phenyl)-1H-pyrazol-4-yl)-6-(trifluoromethyl)picolinamide] | – | – | < 10 | – |
| – | NC(=O)c1nn(-c2ccc(CN3CCC4(CC3)CCN(c3ccc5c(c3)C(=O)N(C3CCC(=O)NC3=O)C5=O)CC4)cc2)cc1NC(=O)c1cccc(C(F)(F)F)n1 (stereo not shown) [Compound A222, N-(3-carbamoyl-1-(4-((9-(2-(2,6-dioxopiperidin-3-yl)-1,3-dioxoisoindolin-5-yl)-3,9-diazaspiro[5.5]undecan-3-yl)methyl)phenyl)-1H-pyrazol-4-yl)-6-(trifluoromethyl)picolinamide] | – | – | 10 to 30 | – |
| < 100 | O=C(Nc1cn(C2CCC2)nc1C(F)F)c1cnn2ccc(-c3ccn[nH]3)nc12 [Compound A291, N-(1-cyclobutyl-3-(difluoromethyl)-1H-pyrazol-4-yl)-5-(1H-pyrazol-5-yl)pyrazolo[1,5-a]pyrimidine-3-carboxamide] | – | – | – | – |
| < 100 | NC(=O)c1nn(C2CCC2)cc1NC(=O)c1cnn2ccc(-c3ccn[nH]3)nc12 [Compound A292, N-(3-Carbamoyl-1-cyclobutyl-1H-pyrazol-4-yl)-5-(1H-pyrazol-5-yl)pyrazolo[1,5-a]pyrimidine-3-carboxamide] | – | – | – | – |
| < 100 | NS(=O)(=O)c1nn(C2CCC2)cc1NC(=O)c1cnn2ccc(-c3ccn[nH]3)nc12 [Compound A293, N-(1-cyclobutyl-3-sulfamoyl-1H-pyrazol-4-yl)-5-(1H-pyrazol-5-yl)pyrazolo[1,5-a]pyrimidine-3-carboxamide] | – | – | – | – |
| 100 to 1000 | NC(=O)c1nn(-c2ccccc2)cc1NC(=O)c1cccc(-c2nc[nH]n2)n1 [Compound A457, N-(3-Carbamoyl-1-phenyl-1H-pyrazol-4-yl)-6-(1H-1,2,4-triazol-3-yl)picolinamide] | – | – | – | – |
| – | N-(3-carbamoyl-1-(4-((1-(3-(2,4-dioxotetrahydropyrimidin-1(2H)-yl)-4-methoxybenzoyl)piperidin-4-yl)methyl)piperazin-1-yl)phenyl)-1H-pyrazol-4-yl)-6-(trifluoromethyl)picolinamide [Compound A175] | – | – | – | < 10 |
